The values that follow are results of earlier work, collected in patent publication US6277391A, “Composition and method of treating diseases and disorders of the prostate” (Samyang Corporation, priority 1998, dated 2001).

For this series the following is noted: 300 mg PO b.i.d., oral or intravenous, at the end of regimen; 60480 min.

`CC1COc2c(N3CCN(C)CC3)c(F)cc3c(=O)c(C(=O)O)cn1c23` (stereo not shown) [ofloxacin]: the “ofloxacin concentrations in the prostate” value was 1 to 4 µg/g.
